Values after ≈ are worked out from the molar mass of the structure shown.
Key:
Enterococcus sp. = assay: In vitro antibacterial activity of compound against Enterococci bacteria.; format: functional
Staphylococcus sp. = assay: In vitro antibacterial activity of compound against Staphylococci bacteria.; format: functional

Structure (SMILES) | MIC (Enterococcus sp.) | MIC (Staphylococcus sp.)
C=CCOc1c(Cl)c(C)c(C(=O)O[C@@H]2[C@@H](C)O[C@@H](O[C@H]3[C@H](O)C[C@]4(O[C@@H]5[C@@H](C)O[C@@H](O[C@H]6[C@@H](OC)[C@@H](C)O[C@@H](O[C@H]7[C@H](O)[C@H](OC)[C@H](O[C@@H]8OC[C@@H]9O[C@@]%10(OC[C@@H](OC(=O)c%11c(C)cc(O)cc%11O)[C@@H]%11OCO[C@H]%11%10)O[C@H]9[C@H]8O)O[C@@H]7COC)[C@]6(C)O)[C@@H](O)[C@@]5(C)O4)O[C@@H]3C)C[C@H]2O[C@H]2C[C@](C)([N+](=O)[O-])[C@@H](OC)[C@H](C)O2)c(OC)c1Cl | 4 mg/L (≈ 2.37 µM) | 4 mg/L (≈ 2.37 µM)
COC[C@H]1O[C@@H](O[C@@H]2OC[C@@H]3O[C@@]4(OC[C@@H](OC(=O)c5c(C)cc(O)cc5O)[C@@H]5OCO[C@H]54)O[C@H]3[C@H]2O)[C@@H](OC)[C@@H](O)[C@@H]1O[C@@H]1O[C@H](C)[C@H](OC)[C@H](O[C@@H]2O[C@H](C)[C@H]3O[C@]4(C[C@@H](O)[C@H](O[C@H]5C[C@@H](O[C@H]6C[C@](C)(NC(C)=O)[C@@H](OC)[C@H](C)O6)[C@H](OC(=O)c6c(C)c(Cl)c(O)c(Cl)c6OC)[C@@H](C)O5)[C@@H](C)O4)O[C@]3(C)[C@@H]2O)[C@@]1(C)O | 2 mg/L (≈ 1.21 µM) | 1 mg/L (≈ 0.603 µM)
COC[C@H]1O[C@@H](O[C@@H]2OC[C@@H]3O[C@@]4(OC[C@@H](OC(=O)c5c(C)cc(O)cc5O)[C@@H]5OCO[C@H]54)O[C@H]3[C@H]2OCCN=[N+]=[N-])[C@@H](OC)[C@@H](O)[C@@H]1O[C@@H]1O[C@H](C)[C@H](OC)[C@H](O[C@@H]2O[C@H](C)[C@H]3O[C@]4(C[C@@H](O)[C@H](O[C@H]5C[C@@H](O[C@H]6C[C@](C)([N+](=O)[O-])[C@@H](OC)[C@H](C)O6)[C@H](OC(=O)c6c(C)c(Cl)c(O)c(Cl)c6OC)[C@@H](C)O5)[C@@H](C)O4)O[C@]3(C)[C@@H]2O)[C@@]1(C)O | 2 mg/L (≈ 1.17 µM) | 2 mg/L (≈ 1.17 µM)
C=CCOc1cc(C)c(C(=O)O[C@@H]2CO[C@]3(O[C@H]4[C@@H](OCCO)[C@H](O[C@@H]5O[C@H](COC)[C@@H](O[C@@H]6O[C@H](C)[C@H](OC)[C@H](O[C@@H]7O[C@H](C)[C@H]8O[C@]9(C[C@@H](O)[C@H](O[C@H]%10C[C@@H](O[C@H]%11C[C@](C)([N+](=O)[O-])[C@@H](OC)[C@H](C)O%11)[C@H](OC(=O)c%11c(C)c(Cl)c(OCC=C)c(Cl)c%11OC)[C@@H](C)O%10)[C@@H](C)O9)O[C@]8(C)[C@@H]7O)[C@@]6(C)O)[C@H](O)[C@@H]5OC)OC[C@@H]4O3)[C@@H]3OCO[C@H]32)c(OCC=C)c1 | 8 mg/L (≈ 4.42 µM) | 16 mg/L (≈ 8.84 µM)
COC[C@H]1O[C@@H](O[C@@H]2OC[C@@H]3O[C@@]4(OC[C@@H](OC(=O)c5c(C)cc(O)cc5O)[C@@H]5OCO[C@H]54)O[C@H]3[C@H]2O)[C@@H](OC)[C@@H](O)[C@@H]1O[C@@H]1O[C@H](C)[C@H](OC)[C@H](O[C@@H]2O[C@H](C)[C@H]3O[C@]4(C[C@@H](O)[C@H](O[C@H]5C[C@@H](O[C@H]6C[C@](C)(NC(=O)[C@H](CCSC)NC(=O)OCc7ccccc7)[C@@H](OC)[C@H](C)O6)[C@H](OC(=O)c6c(C)c(Cl)c(O)c(Cl)c6OC)[C@@H](C)O5)[C@@H](C)O4)O[C@]3(C)[C@@H]2O)[C@@]1(C)O | 2 mg/L (≈ 1.06 µM) | 2 mg/L (≈ 1.06 µM)
COC[C@H]1O[C@@H](O[C@@H]2OC[C@@H]3O[C@@]4(OC[C@@H](OC(=O)c5c(C)cc(O)cc5O)[C@@H]5OCO[C@H]54)O[C@H]3[C@H]2O)[C@@H](OC)[C@@H](O)[C@@H]1O[C@@H]1O[C@H](C)[C@H](OC)[C@H](O[C@@H]2O[C@H](C)[C@H]3O[C@]4(C[C@@H](O)[C@H](O[C@H]5C[C@@H](O[C@H]6C[C@](C)(N)[C@@H](OC)[C@H](C)O6)[C@H](OC(=O)c6c(C)c(Cl)c(O)c(Cl)c6OC)[C@@H](C)O5)[C@@H](C)O4)O[C@]3(C)[C@@H]2O)[C@@]1(C)O | 4 mg/L (≈ 2.48 µM) | 2 mg/L (≈ 1.24 µM)
COC[C@H]1O[C@@H](O[C@@H]2OC[C@@H]3O[C@@]4(OC[C@@H](OC(=O)c5c(C)cc(O)cc5O)[C@@H]5OCO[C@H]54)O[C@H]3[C@H]2OCC(=O)OC)[C@@H](OC)[C@@H](OCC(=O)OC)[C@@H]1O[C@@H]1O[C@H](C)[C@H](OC)[C@H](O[C@@H]2O[C@H](C)[C@H]3O[C@]4(C[C@@H](O)[C@H](O[C@H]5C[C@@H](O[C@H]6C[C@](C)([N+](=O)[O-])[C@@H](OC)[C@H](C)O6)[C@H](OC(=O)c6c(C)c(Cl)c(O)c(Cl)c6OC)[C@@H](C)O5)[C@@H](C)O4)O[C@]3(C)[C@@H]2OCC(=O)OC)[C@@]1(C)O | 4 mg/L (≈ 2.15 µM) | 32 mg/L (≈ 17.2 µM)
COC[C@H]1O[C@@H](O[C@@H]2OC[C@@H]3O[C@@]4(OC[C@@H](OC(=O)c5c(C)cc(O)cc5O)[C@@H]5OCO[C@H]54)O[C@H]3[C@H]2OCCO)[C@@H](OC)[C@@H](O)[C@@H]1O[C@@H]1O[C@H](C)[C@H](OC)[C@H](O[C@@H]2O[C@H](C)[C@H]3O[C@]4(C[C@@H](O)[C@H](O[C@H]5C[C@@H](O[C@H]6C[C@](C)([N+](=O)[O-])[C@@H](OC)[C@H](C)O6)[C@H](OC(=O)c6c(C)c(Cl)c(O)c(Cl)c6OC)[C@@H](C)O5)[C@@H](C)O4)O[C@]3(C)[C@@H]2O)[C@@]1(C)O | 0.5 mg/L (≈ 0.296 µM) | 1 mg/L (≈ 0.592 µM)
COC[C@H]1O[C@@H](O[C@@H]2OC[C@@H]3O[C@@]4(OC[C@@H](OC(=O)c5c(C)cc(O)cc5O)[C@@H]5OCO[C@H]54)O[C@H]3[C@H]2OCCNC(C)=O)[C@@H](OC)[C@@H](O)[C@@H]1O[C@@H]1O[C@H](C)[C@H](OC)[C@H](O[C@@H]2O[C@H](C)[C@H]3O[C@]4(C[C@@H](O)[C@H](O[C@H]5C[C@@H](O[C@H]6C[C@](C)([N+](=O)[O-])[C@@H](OC)[C@H](C)O6)[C@H](OC(=O)c6c(C)c(Cl)c(O)c(Cl)c6OC)[C@@H](C)O5)[C@@H](C)O4)O[C@]3(C)[C@@H]2O)[C@@]1(C)O | 4 mg/L (≈ 2.31 µM) | 2 mg/L (≈ 1.16 µM)
COC[C@H]1O[C@@H](O[C@@H]2OC[C@@H]3O[C@@]4(OC[C@@H](OC(=O)c5c(C)cc(O)cc5O)[C@@H]5OCO[C@H]54)O[C@H]3[C@H]2O)[C@@H](OC)[C@@H](O)[C@@H]1O[C@@H]1O[C@H](C)[C@H](OC)[C@H](O[C@@H]2O[C@H](C)[C@H]3O[C@]4(C[C@@H](O)[C@H](O[C@H]5C[C@@H](O[C@H]6C[C@](C)(NC(=O)[C@@H](CCCCNC(=O)OCc7ccccc7)NC(=O)OCc7ccccc7)[C@@H](OC)[C@H](C)O6)[C@H](OC(=O)c6c(C)c(Cl)c(O)c(Cl)c6OC)[C@@H](C)O5)[C@@H](C)O4)O[C@]3(C)[C@@H]2O)[C@@]1(C)O | 8 mg/L (≈ 3.98 µM) | 32 mg/L (≈ 15.9 µM)
COC[C@H]1O[C@@H](O[C@@H]2OC[C@@H]3O[C@@]4(OC[C@@H](OC(=O)c5c(C)cc(O)cc5O)[C@@H]5OCO[C@H]54)O[C@H]3[C@H]2OC)[C@@H](OC)[C@@H](OC)C1O[C@@H]1O[C@H](C)[C@H](OC)C(O[C@@H]2O[C@H](C)[C@H]3O[C@]4(C[C@@H](OC)[C@H](O[C@H]5C[C@@H](O[C@H]6C[C@](C)([N+](=O)[O-])[C@@H](OC)[C@H](C)O6)[C@H](OC(=O)c6c(C)c(Cl)c(O)c(Cl)c6OC)[C@@H](C)O5)[C@@H](C)O4)O[C@]3(C)[C@@H]2OC)[C@@]1(C)OC (stereo partly specified) | 4 mg/L (≈ 2.33 µM) | 16 mg/L (≈ 9.33 µM)
COC[C@H]1O[C@@H](O[C@@H]2OC[C@@H]3O[C@@]4(OC[C@@H](OC(=O)c5c(C)cc(O)cc5O)[C@@H]5OCO[C@H]54)O[C@H]3[C@H]2O)[C@@H](OC)[C@@H](O)[C@@H]1O[C@@H]1O[C@H](C)[C@H](OC)[C@H](O[C@@H]2O[C@H](C)[C@H]3O[C@]4(C[C@@H](O)[C@H](O[C@H]5C[C@@H](O[C@H]6C[C@](C)(NC(=O)[C@H](C)N)[C@@H](OC)[C@H](C)O6)[C@H](OC(=O)c6c(C)c(Cl)c(O)c(Cl)c6OC)[C@@H](C)O5)[C@@H](C)O4)O[C@]3(C)[C@@H]2O)[C@@]1(C)O | 4 mg/L (≈ 2.37 µM) | 4 mg/L (≈ 2.37 µM)
COC[C@H]1O[C@@H](O[C@@H]2OC[C@@H]3O[C@@]4(OC[C@@H](OC(=O)c5c(C)cc(O)cc5O)[C@@H]5OCO[C@H]54)O[C@H]3[C@H]2O)[C@@H](OC)[C@@H](O)[C@@H]1O[C@@H]1O[C@H](C)[C@H](OC)[C@H](O[C@@H]2O[C@H](C)[C@H]3O[C@]4(C[C@@H](O)[C@H](O[C@H]5C[C@@H](O[C@H]6C[C@](C)([N+](=O)[O-])[C@@H](OC)[C@H](C)O6)[C@H](OC(=O)c6c(C)c(Cl)c(O)c(Cl)c6OC)[C@@H](C)O5)[C@@H](C)O4)O[C@]3(C)[C@@H]2O)[C@H]1O [EVERNIMICIN] | 0.25 mg/L (≈ 0.153 µM) | 2 mg/L (≈ 1.23 µM)

Source: ChEMBL document CHEMBL1132390, “Chemical modifications and structure activity studies of ziracin and related everninomicin antibiotics” (1999)
